In ChEMBL document CHEMBL5543174, “A Nonbactericidal Anionic Antimicrobial Peptide Provides Prophylactic and Therapeutic Efficacies against Bacterial Infections in Mice by Immunomodulatory-Antithrombotic Duality” (J Med Chem, 2024):
Activity calls are given as the source filed them. The rule behind the calls is not given here.

Columns and labels:
[1] = tested on: Staphylococcus epidermidis; assay: Antimicrobial activity against Staphylococcus epidermidis ATCC 12228 assessed as inhibition of microbial growth at <= 200 ug/ml incubated for 18 hrs by micro-broth dilution method; type: functional, organism-based; conditions: dose <= 200.0 µg/ml
Staphylococcus aureus [2] = assay: Antimicrobial activity against Methicillin-resistant Staphylococcus aureus assessed as inhibition of microbial growth at <= 200 ug/ml incubated for 18 hrs by micro-broth dilution method; type: functional, organism-based; conditions: dose <= 200.0 µg/ml
Nakaseomyces glabratus = assay: Antimicrobial activity against Candida glabrata ATCC 66032 assessed as inhibition of microbial growth at <= 200 ug/ml incubated for 18 hrs by micro-broth dilution method; type: functional, organism-based; conditions: dose <= 200.0 µg/ml
Escherichia coli [3] = assay: Antimicrobial activity against Escherichia coli ATCC 25922 assessed as reduction in metabolic activity at < 200 ug/ml incubated for 1 to 4 hrs by CCK-8 assay; type: functional, organism-based; conditions: dose < 200.0 µg/ml, time 1-4 hrs
Escherichia coli [4] = assay: Antibacterial activity against Escherichia coli ATCC 25922 infected in C57BL/6 mouse assessed as reduction in IL-1beta level in peritoneal fluid at 10 mg/kg,ip administrated 5 hrs after bacterial infection measured after 24 hrs by ELISA; type: functional, organism-based; conditions: time 19.0 hrs
Staphylococcus aureus [5] = assay: Antibacterial activity against Methicillin-resistant Staphylococcus aureus infected in C57BL/6 mouse assessed as reduction in IL-6 level in peritoneal fluid at 10 mg/kg,ip pre-administrated 5 hrs before bacterial infection measured after 24 hrs by ELISA; type: functional, organism-based; conditions: time 29.0 hrs
Escherichia coli [6] = assay: Antibacterial activity against Carbapenem-resistant Escherichia coli infected in C57BL/6 mouse assessed as reduction in IL-1beta level in peritoneal fluid at 10 mg/kg,ip administrated 5 hrs after bacterial infection measured after 24 hrs by ELISA; type: functional, organism-based; conditions: time 19.0 hrs
Staphylococcus aureus [7] = assay: Antibacterial activity against Staphylococcus aureus ATCC 25923 infected in C57BL/6 mouse assessed as reduction in IL-1beta level in serum at 10 mg/kg,ip pre-administrated 5 hrs before bacterial infection measured after 24 hrs by ELISA; type: functional, organism-based; conditions: time 29.0 hrs
Staphylococcus aureus [8] = assay: Antibacterial activity against Staphylococcus aureus ATCC 25923 infected in C57BL/6 mouse assessed as increase in survival rate at 10 mg/kg,ip pre-administrated 5 hrs before bacterial infection measured after 7 days; type: functional, organism-based; conditions: time 7.0 day
Escherichia coli [9] = assay: Antibacterial activity against Carbapenem-resistant Escherichia coli infected in C57BL/6 mouse assessed as increase in survival rate at 10 mg/kg,ip administrated 5 hrs after bacterial infection measured after 7 days; type: functional, organism-based; conditions: time 7.0 day
Mus musculus = assay: Immunomodulatory activity in clodronate liposome immunosuppressed C57BL/6 mouse with neutrophil depletion model assessed as change in T-lymphocytes in peritoneal lavage at 10 mg/kg,ip administration measured after 5 to 24 hrs by flow cytometry; type: functional, organism-based; conditions: time 5-24 hrs
Peritoneal macrophage [10] = assay: Induction of chemotaxis in mouse Peritoneal macrophage assessed as upregulation of TNF-alpha expression at 25 to 100 ug/ml incubated for 6 hrs by ELISA; type: functional, cell-based; conditions: dose 25-100 µg/ml
Peritoneal macrophage [11] = assay: Immunomodulatory activity in mouse Peritoneal macrophage assessed as decrease in LTA-induced TNF-alpha production at 25 to 100 ug/ml incubated for 6 hrs by ELISA; type: functional, cell-based; conditions: dose 25-100 µg/ml
[12] = tested on: Peritoneal macrophage cell; assay: Induction of chemotaxis in mouse Peritoneal macrophage assessed as increase in macrophage migration at 100 ug/ml preincubated with WRW4 for 30 mins followed by compound addition measured after 8 hrs by crystal violet staining based indirect transwell assay; type: functional, cell-based; conditions: dose 100.0 µg/ml
[13] = tested on: Peritoneal macrophage cell; assay: Induction of chemotaxis in mouse Peritoneal macrophage assessed as upregulation of CXCL2 production at 100 ug/ml preincubated with KN-62 followed by compound addition by ELISA; type: functional, cell-based; conditions: dose 100.0 µg/ml
Peritoneal macrophage [14] = assay: Immunoregulatory activity in mouse Peritoneal macrophage assessed as change in total ERK expression at 25 to 100 ug/ml incubated for 1 hr by Western blotting analysis; type: functional, cell-based; conditions: dose 25-100 µg/ml
Staphylococcus aureus [15] = assay: Antibacterial activity against Methicillin-resistant Staphylococcus aureus infected in C57BL/6 mouse with cyclophosphamide-induced neutrophil depletion model assessed as reduction of bacterial burden in peritoneal cavity at 10 mg/kg,ip administrated 5 hrs after bacterial infection measured after 24 hrs; type: functional, organism-based; conditions: time 19.0 hrs

For `CC[C@H](C)[C@H](NC(=O)[C@@H]1CSSC[C@H](NC(=O)[C@H](CCC(=O)O)NC(=O)[C@@H](NC(=O)[C@H](CCCCN)NC(=O)[C@H](Cc2c[nH]cn2)NC(=O)[C@@H](NC(=O)[C@H](CCCCN)NC(=O)[C@H](CCC(=O)O)NC(=O)[C@H](C)NC(=O)[C@H](CCC(=O)O)NC(=O)[C@H](CCC(=O)O)NC(=O)[C@H](CCC(=O)O)NC(=O)[C@H](C)N)[C@@H](C)O)[C@@H](C)O)C(=O)N[C@@H](CC(C)C)C(=O)N[C@@H](CCC(=O)O)C(=O)N1)C(=O)N[C@@H](Cc1ccccc1)C(=O)N[C@H](C(=O)N[C@@H](CC(C)C)C(=O)N[C@@H](CC(C)C)C(=O)N1CCC[C@H]1C(=O)N1CCC[C@@H]1C(=O)N[C@H](C)C(=O)O)[C@@H](C)O`, the Activity [1] was “inactive”, the Activity (Staphylococcus aureus [2]) was “inactive” and the Activity (Nakaseomyces glabratus) was “inactive”. For the same compound, the Activity (Escherichia coli [3]) was “inactive”, the Activity (Escherichia coli [4]) was “Active” and the Activity (Staphylococcus aureus [5]) was “Active”. The Activity (Escherichia coli [6]) was “Active”, the Activity (Staphylococcus aureus [7]) was “Active” and the Activity (Staphylococcus aureus [8]) was “Active”. The Activity (Escherichia coli [9]) was “Active”, the Activity (Mus musculus) was “inactive” and the Activity (Peritoneal macrophage [10]) was “inactive”. For the same compound, the Activity (Peritoneal macrophage [11]) was “inactive”, the Activity [12] was “Active” and the Activity [13] was “Active”. For the same compound, the Activity (Peritoneal macrophage [14]) was “inactive” and the Activity (Staphylococcus aureus [15]) was “inactive”.
